According to PMC5643385, “Probing ligand recognition of the opioid pan antagonist AT-076 at nociceptin, kappa, mu, and delta opioid receptors through structure-activity relationships” (Scientific Reports, 2017):
Where two headings read alike, the source gives them in different places.

Assays:
[1] = molecular target: T1, human KOP receptor (Homo sapiens, UniProt P41145); experiment: biochemical
[2] = molecular target: T2, human NOP receptor (Homo sapiens, UniProt P41146); experiment: [35S]GTPγS functional assay (intrinsic activity; Schild analysis vs N/OFQ); format: biochemical
[3] = molecular target: T2, human NOP receptor; experiment: Radioligand competition binding, [3H]N/OFQ, membranes of transfected CHO cells
[4] = molecular target: T1, human KOP receptor; experiment: Radioligand competition binding, [3H]U69,593, membranes of transfected CHO cells (Kappa-CN)
[5] = molecular target: T3, human MOP receptor (Homo sapiens, UniProt P35372); experiment: Radioligand competition binding, [3H]DAMGO, membranes of transfected CHO cells
[6] = molecular target: T3, human MOP receptor; experiment: biochemical
[7] = molecular target: T4, human DOP receptor (Homo sapiens, UniProt P41143); experiment: Radioligand competition binding, [3H]DPDPE, membranes of transfected CHO cells
[8] = molecular target: T4, human DOP receptor; experiment: [35S]GTPγS functional assay (intrinsic activity; Schild analysis vs DPDPE); format: biochemical; settings: inhibition of agonist-induced [35S]GTPγS binding, read-out: Antagonist Potency (pA2 ± SEM) DOP (converted)
[9] = system: NOP; parameters: method as in PMID 16451050; settings: Figure 1; cited from earlier work
[10] = read-out: Receptor Binding, Ki DOP
[11] = [3H]N/OFQ displacement, Cheng-Prusoff, mean ± SEM, at least three experiments in triplicate, read-out: Receptor Binding, Ki NOP
[12] = [3H]U69,593 displacement, Cheng-Prusoff, mean ± SEM, at least three experiments in triplicate, read-out: Receptor Binding, Ki KOP
[13] = [3H]DAMGO displacement, Cheng-Prusoff, mean ± SEM, at least three experiments in triplicate, read-out: Receptor Binding, Ki MOP

Structure (SMILES)	Kb [1] [nM]	Ki [3] [nM]	Ki [4] [nM]	Ki [5] [nM]	Kb [6] [nM]	Ki [7, 10] [nM]	Ki [3, 11] [nM]	Ki [4, 12] [nM]	Ki [5, 13] [nM]	other results
CC(C)[C@@H](CN1CCC(c2cccc(CN)c2)CC1)NC(=O)[C@H]1Cc2ccc(O)cc2CN1 [Compound 10, (R)-N-((S)-1-(4-(3-(aminomethyl)phenyl)piperidin-1-yl)-3-methylbutan-2-yl)-7-hydroxy-1,2,3,4-tetrahydroisoquinoline-3-carboxamide]	0.38	30.7 ± 14.5	1.08 ± 0.01	0.68 ± 0.28	15.5	133 ± 24.9				Kb [2]: 132 nM; Increase in NOP binding affinity compared to cyano precursor 8 [3]: 2 fold
CC(C)[C@@H](CN1CCC(c2cccc(O)c2)CC1)NC(=O)[C@H]1Cc2ccc(CNC(=N)N)cc2CN1 [Compound 4, (R)-7-(guanidinomethyl)-N-((S)-1-(4-(3-hydroxyphenyl)piperidin-1-yl)-3-methylbutan-2-yl)-1,2,3,4-tetrahydroisoquinoline-3-carboxamide]						> 10000	3260 ± 780	129 ± 60	180 ± 70	Decrease in KOP binding affinity compared to AT-076 ([4]; vs lead AT-076 (1)): > 100 fold; Decrease in MOP binding affinity compared to AT-076 ([5]; vs lead AT-076 (1)): > 100 fold; Decrease in DOP binding affinity compared to AT-076 ([7]; vs lead AT-076 (1)): > 100 fold
CC(C)[C@@H](CN1CCC(C2CCCCC2)CC1)NC(=O)[C@H]1Cc2ccc(O)cc2CN1 [Compound 14, (R)-N-((S)-1-(4-cyclohexylpiperidin-1-yl)-3-methylbutan-2-yl)-7-hydroxy-1,2,3,4-tetrahydroisoquinoline-3-carboxamide]	0.0347	84.4 ± 13.6	0.253 ± 0.015	2.79 ± 0.28	0.692					Kb [8]: 42.3 nM; Binding selectivity for KOP over DOP [4]: 49 fold; Binding selectivity for KOP over MOP [4]: 11 fold; Binding selectivity for KOP over NOP [4]: 333 fold; Higher KOP affinity than AT-076 [4]: 2–4 fold; Ki [7]: 12.4 ± 8 nM
CC(C)[C@@H](CN1CCC(c2cccc(O)c2)CC1)NC(=O)[C@H]1Cc2ccc(CNS(C)(=O)=O)cc2CN1 [Compound 5, (R)-N-((S)-1-(4-(3-hydroxyphenyl)piperidin-1-yl)-3-methylbutan-2-yl)-7-(methylsulfonamidomethyl)-1,2,3,4-tetrahydroisoquinoline-3-carboxamide]						> 10000	7910 ± 1470	295 ± 65	4400 ± 2350	
Cc1cccc2c1CC[C@H](CN1CCC(c3c(Cl)cccc3Cl)CC1)C[C@@H]2O [SB-612111, reference compound]						2890 ± 532				Ki ([4]; read-out: Receptor Binding, Ki KOP): 541 ± 36.3 nM; Ki ([5]; read-out: Receptor Binding, Ki MOP): 623 ± 156 nM
O=C(NCCCN1CCC2(CC1)OCc1ccccc12)C1CCCN1Cc1ccccc1 (stereo not shown) [Compound C-24]										IC50 [9]: 0.27 ± 0.038 nM
CC(C)[C@@H](CN1CCC(c2cccc(CNC(=O)[C@@H](N)CCCNC(=N)N)c2)CC1)NC(=O)[C@H]1Cc2ccc(O)cc2CN1 [Compound 12, (R)-N-((S)-1-(4-(3-(((S)-2-amino-5-guanidinopentanamido)methyl)phenyl)piperidin-1-yl)-3-methylbutan-2-yl)-7-hydroxy-1,2,3,4-tetrahydroisoquinoline-3-carboxamide]	0.158	6.04 ± 1.32	2.11 ± 0.52	5.67 ± 2.38	0.692					Kb [2]: 5.01 nM; Ki [7]: 53.6 ± 7.12 nM
CC(C)[C@@H](CN1CCC(c2cccc(O)c2)CC1)NC(=O)[C@@H](N)CCCCN [Compound 6, (S)-2,6-diamino-N-((S)-1-(4-(3-hydroxyphenyl)piperidin-1-yl)-3-methylbutan-2-yl)hexanamide]						> 10000	> 10000	1520 ± 419	> 10000	
CC(C)[C@@H](CN1CCC(c2cccc(CNC(=O)[C@@H](N)CCCNC(=N)N)c2)CC1)NC(=O)[C@H]1Cc2ccccc2CN1 [Compound 13, (R)-N-((S)-1-(4-(3-(((S)-2-amino-5-guanidinopentanamido)methyl)phenyl)piperidin-1-yl)-3-methylbutan-2-yl)-1,2,3,4-tetrahydroisoquinoline-3-carboxamide]		43.3 ± 19.1	56.1 ± 5.38			> 10000			408 ± 37.3	
